# In patent US9249087B2, “HDAC inhibitors and therapeutic methods using the same” (THE BOARD OF TRUSTEES OF THE UNIVERSITY OF ILLINOIS, priority 2011, dated 2016):
# Where a name gives a salt, the structure may show the parent alone. Read-outs that look alike come from different tables or passages of the source.
# What was measured:
# Assay type in all cases: biochemical
# HDAC8 = HDAC8 (Homo sapiens (Human), UniProt Q9BY41); test: HDAC8 inhibition assay (fluorogenic diacyl peptide)
# Human HDAC6 = Human HDAC6 (Homo sapiens (Human), UniProt Q9UBN7); test: HDAC6 fluorogenic peptide deacetylation inhibition assay; conditions: for HDAC6 Selectivity (HDAC1/HDAC6): ratio HDAC1 IC50/HDAC6 IC50; for BEI: binding efficiency index, BEI=pIC50/MW, MW in kDa
# Human HDAC6, sequence (Q9UBN7 whole entry): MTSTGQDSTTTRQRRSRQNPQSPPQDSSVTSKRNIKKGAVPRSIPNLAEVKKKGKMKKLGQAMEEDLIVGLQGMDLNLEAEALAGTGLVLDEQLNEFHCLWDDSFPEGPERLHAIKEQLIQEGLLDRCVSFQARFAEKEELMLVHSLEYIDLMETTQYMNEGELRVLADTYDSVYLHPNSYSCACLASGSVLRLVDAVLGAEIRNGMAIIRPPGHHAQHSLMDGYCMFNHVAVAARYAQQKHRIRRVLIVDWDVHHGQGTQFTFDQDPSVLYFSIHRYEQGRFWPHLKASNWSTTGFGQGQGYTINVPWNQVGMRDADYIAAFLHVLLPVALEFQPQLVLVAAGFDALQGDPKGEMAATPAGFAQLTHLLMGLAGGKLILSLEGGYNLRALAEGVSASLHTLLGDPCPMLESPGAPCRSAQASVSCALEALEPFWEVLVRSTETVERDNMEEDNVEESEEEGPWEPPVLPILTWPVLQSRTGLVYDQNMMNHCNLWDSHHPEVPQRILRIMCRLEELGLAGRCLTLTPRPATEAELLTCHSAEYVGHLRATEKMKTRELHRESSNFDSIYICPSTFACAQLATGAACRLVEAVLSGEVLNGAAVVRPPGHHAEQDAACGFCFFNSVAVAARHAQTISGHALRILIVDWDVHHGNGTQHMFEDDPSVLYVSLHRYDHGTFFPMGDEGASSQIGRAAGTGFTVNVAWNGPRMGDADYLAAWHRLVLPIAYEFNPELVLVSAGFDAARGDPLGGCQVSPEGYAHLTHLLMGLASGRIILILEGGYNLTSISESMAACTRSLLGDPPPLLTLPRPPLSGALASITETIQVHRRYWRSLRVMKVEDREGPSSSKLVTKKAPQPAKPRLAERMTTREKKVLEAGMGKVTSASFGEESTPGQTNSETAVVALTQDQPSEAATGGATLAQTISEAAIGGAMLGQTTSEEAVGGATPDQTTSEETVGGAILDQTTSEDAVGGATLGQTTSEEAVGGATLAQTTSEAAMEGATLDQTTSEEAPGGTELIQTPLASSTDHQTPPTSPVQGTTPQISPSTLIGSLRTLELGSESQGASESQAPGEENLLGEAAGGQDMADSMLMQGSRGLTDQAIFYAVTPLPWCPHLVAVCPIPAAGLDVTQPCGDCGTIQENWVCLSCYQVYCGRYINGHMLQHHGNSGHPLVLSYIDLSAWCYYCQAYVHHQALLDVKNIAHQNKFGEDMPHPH
# Human HDAC1 = Human HDAC1 (Homo sapiens (Human), UniProt Q13547); test: HDAC1 fluorogenic peptide deacetylation inhibition assay
# Human HDAC1, sequence (Q13547 whole entry, canonical isoform): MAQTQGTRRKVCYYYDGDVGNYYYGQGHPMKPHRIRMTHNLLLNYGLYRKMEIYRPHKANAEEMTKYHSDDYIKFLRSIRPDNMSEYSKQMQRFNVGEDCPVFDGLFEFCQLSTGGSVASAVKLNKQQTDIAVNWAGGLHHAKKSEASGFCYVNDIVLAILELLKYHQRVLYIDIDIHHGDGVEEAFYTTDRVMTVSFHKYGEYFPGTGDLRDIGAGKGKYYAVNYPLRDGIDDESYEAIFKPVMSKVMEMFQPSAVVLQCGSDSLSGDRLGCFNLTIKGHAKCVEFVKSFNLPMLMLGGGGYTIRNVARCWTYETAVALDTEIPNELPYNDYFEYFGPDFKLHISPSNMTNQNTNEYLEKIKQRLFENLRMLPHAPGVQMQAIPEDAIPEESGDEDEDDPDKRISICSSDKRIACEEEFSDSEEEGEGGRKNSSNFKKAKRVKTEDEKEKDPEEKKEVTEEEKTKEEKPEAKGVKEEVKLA
# HDAC2 = HDAC2 (Homo sapiens (Human), UniProt Q92769); test: HDAC2 fluorogenic peptide deacetylation inhibition assay; conditions: average of two experiments; read-out: HDAC Isoform IC50 (μM) 2
# HDAC2, sequence (Q92769 whole entry, canonical isoform): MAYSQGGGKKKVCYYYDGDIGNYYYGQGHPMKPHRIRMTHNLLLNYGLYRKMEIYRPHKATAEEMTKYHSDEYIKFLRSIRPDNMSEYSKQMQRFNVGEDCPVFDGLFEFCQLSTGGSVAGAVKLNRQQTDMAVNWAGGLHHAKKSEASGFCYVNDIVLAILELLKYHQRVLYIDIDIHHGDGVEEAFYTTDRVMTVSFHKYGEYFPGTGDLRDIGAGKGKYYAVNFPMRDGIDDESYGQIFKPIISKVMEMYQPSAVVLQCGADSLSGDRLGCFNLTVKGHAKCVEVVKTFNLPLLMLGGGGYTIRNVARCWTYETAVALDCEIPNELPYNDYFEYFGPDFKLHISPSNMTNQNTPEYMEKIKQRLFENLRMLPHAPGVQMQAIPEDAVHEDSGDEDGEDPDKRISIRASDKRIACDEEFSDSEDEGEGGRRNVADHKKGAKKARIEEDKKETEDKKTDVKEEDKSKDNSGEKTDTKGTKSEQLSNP
# HDAC9 = HDAC9 (Homo sapiens (Human), UniProt Q9UKV0); test: HDAC9 inhibition assay (Acetyl-Lys(trifluoroacetyl)-AMC substrate); conditions: average of two experiments; read-out: HDAC Isoform IC50 (μM) 9
# HDAC9, sequence (Q9UKV0 whole entry, canonical isoform): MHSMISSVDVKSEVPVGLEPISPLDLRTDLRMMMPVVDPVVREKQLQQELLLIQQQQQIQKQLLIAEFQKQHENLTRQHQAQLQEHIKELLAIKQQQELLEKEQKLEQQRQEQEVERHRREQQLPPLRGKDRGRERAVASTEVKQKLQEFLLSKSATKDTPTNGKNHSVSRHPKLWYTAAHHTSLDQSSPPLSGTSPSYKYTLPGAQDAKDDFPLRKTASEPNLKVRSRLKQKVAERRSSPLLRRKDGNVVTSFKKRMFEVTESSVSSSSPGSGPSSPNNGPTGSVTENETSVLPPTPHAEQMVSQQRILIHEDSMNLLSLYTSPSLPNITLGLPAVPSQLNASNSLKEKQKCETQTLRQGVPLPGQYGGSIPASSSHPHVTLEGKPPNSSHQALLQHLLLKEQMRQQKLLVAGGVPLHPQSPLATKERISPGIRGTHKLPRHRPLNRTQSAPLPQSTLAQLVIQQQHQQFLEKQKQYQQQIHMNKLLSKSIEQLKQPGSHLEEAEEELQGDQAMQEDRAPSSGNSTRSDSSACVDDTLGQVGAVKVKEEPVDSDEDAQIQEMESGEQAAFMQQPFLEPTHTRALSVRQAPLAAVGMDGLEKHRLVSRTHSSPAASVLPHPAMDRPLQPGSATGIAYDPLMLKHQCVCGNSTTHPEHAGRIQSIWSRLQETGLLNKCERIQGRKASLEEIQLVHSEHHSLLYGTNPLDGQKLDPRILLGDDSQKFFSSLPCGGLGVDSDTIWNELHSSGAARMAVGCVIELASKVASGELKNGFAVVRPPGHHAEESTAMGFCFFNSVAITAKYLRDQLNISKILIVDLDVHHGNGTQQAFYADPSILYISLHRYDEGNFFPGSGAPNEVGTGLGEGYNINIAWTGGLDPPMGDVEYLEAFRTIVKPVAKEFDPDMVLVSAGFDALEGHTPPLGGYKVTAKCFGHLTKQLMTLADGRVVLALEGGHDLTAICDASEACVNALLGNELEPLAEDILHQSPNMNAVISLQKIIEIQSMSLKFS
# [1] = average of two experiments, read-out: HDAC Isoform IC50 (μM) 8
# [2] = average of two experiments, read-out: HDAC Isoform IC50 (μM) 6
# [3] = average of two experiments, read-out: HDAC Isoform IC50 (μM) 1
# [4] = Table 3, mean of two experiments ± standard deviation, read-out: HDAC8 IC50
# [5] = Table 3, mean of two experiments ± standard deviation, read-out: HDAC6 IC50
# [6] = Table 3, mean of two experiments ± standard deviation, read-out: HDAC1 IC50
# HDAC8, sequence (Q9BY41 whole entry): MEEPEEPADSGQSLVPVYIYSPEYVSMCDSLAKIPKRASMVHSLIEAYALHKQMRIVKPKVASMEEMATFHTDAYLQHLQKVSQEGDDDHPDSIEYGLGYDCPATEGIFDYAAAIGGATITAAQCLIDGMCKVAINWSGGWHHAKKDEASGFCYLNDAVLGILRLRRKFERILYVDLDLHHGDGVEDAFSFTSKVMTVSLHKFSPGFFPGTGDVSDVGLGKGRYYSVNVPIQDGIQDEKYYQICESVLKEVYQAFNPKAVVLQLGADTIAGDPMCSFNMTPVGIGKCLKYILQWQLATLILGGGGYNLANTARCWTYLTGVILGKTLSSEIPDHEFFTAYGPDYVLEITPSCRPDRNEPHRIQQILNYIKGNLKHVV
IC50 (Human HDAC6; [2]) [µM],IC50 (Human HDAC1; [3]) [µM],SMILES,HDAC6 Selectivity (HDAC1/HDAC6) (Human HDAC6),further results
0.00251,5.34,"Cc1cc2ccccc2n1Cc1ccc(C(=O)NO)cc1 [Compound 4, N-Hydroxy-4-((2-methyl-1H-indol-1-yl)methyl)benzamide]",,"IC50 (HDAC8; [1]): 0.397 µM; selectivity against HDAC1 (Human HDAC6; HDAC6 vs HDAC1, running text): 2125 fold; IC50 (Human HDAC6; read-out: HDAC6 IC50): 0.0025 µM; IC50 (HDAC2): 8.14 µM; IC50 (HDAC9): 18.3 µM"
> 30,> 30,"CC(=O)c1ccc(Cn2ccc3ccccc32)cc1 [Compound 23, 1-(4-((1H-Indol-1-yl)methyl)phenyl)ethanone]",,
0.00146,3.09,Cc1c(CN)c2ccccc2n1Cc1ccc(C(=O)NO)cc1,2116,
0.047,14.7,"CC(=O)NCCCc1nc2ccccc2n1Cc1ccc(C(=O)NO)cc1 [Compound 36, 4-((2-(3-Acetamidopropyl)-1H-benzo[d]imidazol-1-yl)methyl)-N-hydroxybenzamide.TFA]",,
0.00017,0.623,"CS(=O)(=O)NCCc1cn(Cc2ccc(C(=O)NO)cc2)c2ccccc12 [Compound 30, N-Hydroxy-4-((3-(2-(methylsulfonamido)ethyl)-1H-indol-1-yl)methyl)benzamide]",,
0.0092,8.79,"Cc1nc2ccccc2n1Cc1ccc(C(=O)NO)cc1 [Compound 32, N-hydroxy-4-((2-methyl-1H-benzo[d]imidazol-1-yl)methyl)benzamide]",,
0.00146,3.09,"Cc1c(CN(C)C)c2ccccc2n1Cc1ccc(C(=O)NO)cc1 [Compound 21, 4-((3-((Dimethylamino)methyl)-2-methyl-1H-indol-1-yl)methyl)-N-hydroxybenzamide]",,
0.126,52.4,"CN(C)CCc1nc2ccccc2n1Cc1ccc(C(=O)NO)cc1 [Compound 38, 4-((2-(2-(Dimethylamino)ethyl)-1H-benzo[d]imidazol-1-yl)methyl)-N-hydroxybenzamide]",,
0.00511,6.79,"Cc1cn(Cc2ccc(C(=O)NO)cc2)c2ccccc12 [Compound 6, N-Hydroxy-4-((3-methyl-1H-indol-1-yl)methyl)benzamide]",,IC50 (HDAC8; [1]): 0.911 µM; IC50 (HDAC2): 11.9 µM; IC50 (HDAC9): 14.5 µM
0.0294,8.54,"O=C(NO)c1ccc(Cn2cnc3ccccc32)cc1 [Compound 27, 4-((1H-Benzo[d]imidazol-1-yl)methyl)-N-hydroxybenzamide.TFA]",,
0.047,27.7,"CC(C)c1nc2ccccc2n1Cc1ccc(C(=O)NO)cc1 [Compound 39, N-Hydroxy-4-((2-isopropyl-1H-benzo[d]imidazol-1-yl)methyl)benzamide]",,
> 30,> 30,"NC(=O)c1ccc(Cn2ccc3ccccc32)cc1 [Compound 22, 4-((1H-Indol-1-yl)methyl)benzamide]",,
0.00408,12.2,"Cc1c(C)n(Cc2ccc(C(=O)NO)cc2)c2ccccc12 [Compound 8, 4-((2,3-Dimethyl-1H-indol-1-yl)methyl)-N-hydroxybenzamide]",,

# The next lines start with the compound.
SMILES,IC50 (Human HDAC6; [2]) [µM],IC50 (Human HDAC1; [3]) [µM],HDAC6 Selectivity (HDAC1/HDAC6) (Human HDAC6),further results
"O=C(NO)c1ccc(CN2CCCC2)cc1 [Compound 57, N-Hydroxy-4-(pyrrolidin-1-ylmethyl)benzamide.TFA]",0.54,29,,IC50 (HDAC8; [1]): 1.2 µM
O=C(NO)c1ccc(Cn2cc(Cc3ccccc3)c3ccccc32)cc1 [drawing 140],,,451,
CCN(CC)Cc1ccc(C(=O)NO)cc1 [drawing 153],,,>5,
"CN(C)c1ccc(Cc2ccc(C(=O)NO)cc2)cc1 [Compound 47, 4-(4-(Dimethylamino)benzyl)-N-hydroxybenzamide]",0.0119,6.87,,
"COC[C@@H]1CCCN1Cc1ccc(C(=O)NO)cc1 [Compound 59, (S)-N-Hydroxy-4-((2-(methoxymethyl)pyrrolidin-1-yl)methyl)benzamide.TFA]",0.15,27.9,,IC50 (HDAC8; [1]): 1.82 µM
"O=C(NO)c1ccc(Cn2cnc3ncncc32)cc1 [Compound 14, 4-((7H-Purin-7-yl)methyl)-N-hydroxybenzamide]",0.0142,3.56,,
Cc1cc2ccccc2n1Cc1ccc(C(=O)NO)cc1 [drawing 158],,,,IC50 (HDAC8; [4]): 0.397 ± 0.099 µM; IC50 (Human HDAC6; [5]): 0.0025 ± 0.0004 µM; BEI (Human HDAC6): 30.7; IC50 (Human HDAC1; [6]): 5.34 ± 0.16 µM
O=C(NO)c1ccc(CN(c2ccccc2)c2ccccc2)cc1 [drawing 162],,,,IC50 (HDAC8; [4]): 2.38 ± 0.25 µM; BEI (Human HDAC6): 26.3; IC50 (Human HDAC1; [6]): 6.66 ± 0.51 µM
"O=C(NO)c1ccc(Cn2cnc3cncnc32)cc1 [Compound 12, 4-((9H-Purin-9-yl)methyl)-N-hydroxybenzamide]",0.00348,0.94,,
"CCN(CC)Cc1ccc(C(=O)NO)cc1 [Compound 51, 4-((Diethylamino)methyl)-N-hydroxybenzamide]",6.28,> 30,,IC50 (HDAC8; [1]): 9.43 µM
O=C(NO)c1ccc(CN2CCCC2)cc1 [drawing 150],,,54,
"O=C(NO)c1ccc(CN(c2ccccc2)c2ccccc2)cc1 [Compound 55, 4-((Diphenylamino)methyl)-N-hydroxybenzamide]",4.5,6.66,,IC50 (HDAC8; [1]): 2.38 µM; selectivity for HDAC6 vs HDAC8 (Human HDAC6): over 500 fold
"O=C(NO)c1ccc(Cn2cccc2)cc1 [Compound 41, 4-((1H-Pyrrol-1-yl)methyl)-N-hydroxybenzamide]",0.0313,5.73,,
O=C(NO)c1ccc(Cn2cnc3ncncc32)cc1 [drawing 144],,,251,
"CN(C)c1cccc(Cc2ccc(C(=O)NO)cc2)c1 [Compound 49, 4-(3-(Dimethylamino)benzyl)-N-hydroxybenzamide]",0.0701,12.2,,
Cc1cn(Cc2ccc(C(=O)NO)cc2)c2ccccc12 [drawing 159],,,,IC50 (HDAC8; [4]): 0.911 ± 0.042 µM; IC50 (Human HDAC6; [5]): 0.0051 ± 0.0008 µM; BEI (Human HDAC6): 29.6; IC50 (Human HDAC1; [6]): 6.79 ± 0.29 µM
"O=C(NO)c1ccc(Cn2ccc3ccccc32)cc1 [Compound 2, 4-((1H-Indol-1-yl)methyl)-N-hydroxybenzamide]",0.00975,5.83,,IC50 (HDAC8; [1]): 0.417 µM; IC50 (HDAC2): 9.19 µM; IC50 (HDAC9): 8.16 µM

SMILES,IC50 (Human HDAC6; [2]) [µM],IC50 (Human HDAC1; [3]) [µM],HDAC6 Selectivity (HDAC1/HDAC6) (Human HDAC6),further results
CN1CCN(CCc2cn(Cc3ccc(C(=O)NO)cc3)c3ccccc23)CC1 [drawing 142],0.00294,1.23,418,IC50 (HDAC8; [1]): 0.174 µM
O=C(NO)c1ccc(Cc2ccncc2)cc1 [drawing 145],,,181,
"O=C(NO)c1ccc(Cc2ccncc2)cc1 [Compound 45, N-Hydroxy-4-(pyridin-4-ylmethyl)benzamide]",0.0358,6.47,,
"O=C(NO)c1ccc(Cn2cccn2)cc1 [Compound 43, 4-((1H-Pyrazol-1-yl)methyl)-N-hydroxybenzamide]",0.0109,1.47,,
O=C(NO)c1ccc(Cn2ccc3ccccc32)cc1 [drawing 157],,,,IC50 (HDAC8; [4]): 0.417 ± 0.04 µM; IC50 (Human HDAC6; [5]): 0.0097 ± 0.0003 µM; BEI (Human HDAC6): 30.1; IC50 (Human HDAC1; [6]): 5.83 ± 0.7 µM
"CN1CCN(CCc2cn(Cc3ccc(C(=O)NO)cc3)c3ccccc23)CC1 [Compound 17, N-Hydroxy-4-{3-[2-(4-methyl-piperazin-1-yl)-ethyl]-indol-1-ylmethyl}-benzamide]",0.00294,1.23,,IC50 (HDAC8; [1]): 0.174 µM
CN(C)c1ccc(Cc2ccc(C(=O)NO)cc2)cc1 [drawing 146],,,577,
Cc1cn(Cc2ccc(C(=O)NO)cc2)c2ccccc12 [drawing 138],,,1329,IC50 (HDAC2): 11.9 µM; IC50 (HDAC9): 14.5 µM
O=C(NO)c1ccc(Cn2cccc2)cc1 [drawing 147],,,183,
COC[C@H]1CCCN1Cc1ccc(C(=O)NO)cc1 [Compound 61],1.25,> 30,,IC50 (HDAC8; [1]): 5.59 µM
O=C(NO)c1ccc(Cn2cccn2)cc1 [drawing 148],,,135,
Cc1cc2ccccc2n1Cc1ccc(C(=O)NO)cc1 [drawing 137],,,2127,IC50 (HDAC2): 8.14 µM; IC50 (HDAC9): 18.3 µM
"CC(C)N(Cc1ccc(C(=O)NO)cc1)C(C)C [Compound 53, 4-((Diisopropylamino)methyl)-N-hydroxybenzamide]",0.124,23.8,,IC50 (HDAC8; [1]): 1.92 µM
O=C(NO)c1ccc(Cn2cnc3cncnc32)cc1 [drawing 143],,,270,
O=C(NO)c1ccc(Cn2ccc3ccccc32)cc1 [drawing 136],,,598,IC50 (HDAC2): 9.19 µM; IC50 (HDAC9): 8.16 µM
"O=C(NO)c1ccc(Cn2cc(Cc3ccccc3)c3ccccc32)cc1 [Compound 10, 4-((3-Benzyl-1H-indol-1-yl)methyl)-N-hydroxybenzamide]",0.0293,13.2,,IC50 (HDAC8; [1]): 0.324 µM
